Measured values taken from patent US9199959B2, “HIV replication inhibitor” (Shionogi & Co., Ltd., priority 2011, dated 2015).

Legend:
HIV (HTLV-III B strain) = assay: HIV replication inhibition assay (MTT, MT-4 cells); type: cell-based; details: Human immunodeficiency virus 1, MT4, 96 h, four days culture, concentration at which cell cytotoxicity by virus is inhibited 50%
Experimental: HIV (HTLV-III B strain) persistent infected human T cell strain Molt-4 clone 8 was cultured in 10% Fetal Bovine Serum-containing RPMI-1640 medium and the supernatant was filtrated, then the virus titer was measured and the solution was stored at −80° C. Each anti-human immunodeficiency virus active substance was diluted with the above cultured medium to the designated concentration, which was dispensed into 96 well micro plate by 50 μL. Next, a MT-4 cell suspended liquid was dispensed by 100 μL (2.5×10^4 cells), then the above HIV-containing supernatant diluted with the above cultured medium was added thereto by 50 μL (60 pfu (plaque forming unit)).
The obtained mixture was cultured at 37° C. in CO2 incubator for four days, then 3-(4,5-dimehylthiazole-2-yl)-2,5-diphenyltetrazolynium bromide (MTT) 5 mg/mL in PBS was added to each well by 30 μL, followed by 1 hr-cultivation. In this step, as formazan was precipitated by reduction of MTT in living cells, the cell supernatant was removed from all well by 150 μL, then a 150 μL of solution (10% Triton X-100 and […]) was added thereto, followed by shaking with a plate mixer, to elute formazan. The formazan was measured with a microreader at OD: 560 nm and 690 nm (wavelength) and the result was compared with the reference. EC50 means the compound concentration at which cell cytotoxicity by virus is inhibited 50%.

CYP3A4 = target: T1, CYP3A4 (Homo sapiens, UniProt P08684); assay: CYP inhibition assay, terfenedine hydroxylation; type: in vitro ADME; details: pooled human liver microsomes, probe terfenedine (hydroxylation), 1 μmol/L, pooled human hepatic microsome
T1 construct: enzyme, pooled human hepatic microsome 0.2 mg protein/mL; from tissue; host or cells: pooled human liver microsomes
Experimental: (§1) Using commercially available pooled human hepatic microsome, and employing, as markers, 7-ethoxyresorufin O-deethylation (CYP1A2), tolbutamide methyl-hydroxylation (CYP2C9), mephenytoin 4′-hydroxylation (CYP2C19), dextromethorphan O-demethylation (CYP2D6), and terfenedine hydroxylation (CYP3A4) as typical substrate metabolism reactions of human main five CYP enzyme forms (CYP1A2, 2C9, 2C19, 2D6, 3A4), an inhibitory degree of each metabolite production amount by a test compound was assessed.
(§2) The reaction conditions were as follows: substrate, 0.5 μmol/L ethoxyresorufin (CYP1A2), 100 μmol/L tolbutamide (CYP2C9), 50 μmol/L S-mephenytoin (CYP2C19), 5 μmol/L dextromethorphan (CYP2D6), 1 μmol/L terfenedine (CYP3A4); reaction time, 15 minutes; reaction temperature, 37° C.; enzyme, pooled human hepatic microsome 0.2 mg protein/mL; test drug concentration, 1, 5, 10, 20 μmol/L (four points).
(§3) Each five kinds of substrates, human hepatic microsome, and a test drug in 50 mmol/L Hepes buffer as a reaction solution was added to a 96-well plate as the composition as described above, NADPH, as a cofactor was added to initiate metabolism reactions as markers and, after the incubation at 37° C. for 15 minutes, a methanol/acetonitrile=1/1 (v/v) solution was added to stop the reaction. After the centrifugation at 3000 rpm for 15 minutes, resorufin (CYP1A2 metabolite) in the supernatant was quantified by a fluorescent multilabel counter and tolbutamide hydroxide (CYP2C9 metabolite), mephenytoin 4′ hydroxide (CYP2C19 metabolite), dextrorphan (CYP2D6 metabolite), and terfenadine alcohol (CYP3A4 metabolite) were quantified by LC/MS/MS.
(§4) A reaction system containing only DMSO which is a solvent for dissolving a drug was adopted as a control (100%), and the remaining activity (%) was calculated, then IC50 was calculated by reverse presumption with a logistic model using a concentration and an inhibition rate.

CYP2C19 = target: T2, CYP2C19 (Homo sapiens, UniProt P33261); assay: CYP inhibition assay, mephenytoin 4'-hydroxylation; type: in vitro ADME; details: pooled human liver microsomes, probe S-mephenytoin (4'-hydroxylation), 50 μmol/L, pooled human hepatic microsome
T2 construct: enzyme, pooled human hepatic microsome 0.2 mg protein/mL; from tissue; host or cells: pooled human liver microsomes
Experimental: as §1, §2, §3, §4

CYP2D6 = target: T3, CYP2D6 (Homo sapiens, UniProt P10635); assay: CYP inhibition assay, dextromethorphan O-demethylation; type: in vitro ADME; details: pooled human liver microsomes, probe dextromethorphan (O-demethylation), 5 μmol/L, pooled human hepatic microsome
T3 construct: enzyme, pooled human hepatic microsome 0.2 mg protein/mL; from tissue; host or cells: pooled human liver microsomes
Experimental: as §1, §2, §3, §4

CYP1A2 = target: T4, CYP1A2 (Homo sapiens, UniProt P05177); assay: CYP inhibition assay, 7-ethoxyresorufin O-deethylation; type: in vitro ADME; details: pooled human liver microsomes, probe 7-ethoxyresorufin (O-deethylation), 0.5 μmol/L, pooled human hepatic microsome
T4 construct: enzyme, pooled human hepatic microsome 0.2 mg protein/mL; from tissue; host or cells: pooled human liver microsomes
T4 sequence (P05177 1-516): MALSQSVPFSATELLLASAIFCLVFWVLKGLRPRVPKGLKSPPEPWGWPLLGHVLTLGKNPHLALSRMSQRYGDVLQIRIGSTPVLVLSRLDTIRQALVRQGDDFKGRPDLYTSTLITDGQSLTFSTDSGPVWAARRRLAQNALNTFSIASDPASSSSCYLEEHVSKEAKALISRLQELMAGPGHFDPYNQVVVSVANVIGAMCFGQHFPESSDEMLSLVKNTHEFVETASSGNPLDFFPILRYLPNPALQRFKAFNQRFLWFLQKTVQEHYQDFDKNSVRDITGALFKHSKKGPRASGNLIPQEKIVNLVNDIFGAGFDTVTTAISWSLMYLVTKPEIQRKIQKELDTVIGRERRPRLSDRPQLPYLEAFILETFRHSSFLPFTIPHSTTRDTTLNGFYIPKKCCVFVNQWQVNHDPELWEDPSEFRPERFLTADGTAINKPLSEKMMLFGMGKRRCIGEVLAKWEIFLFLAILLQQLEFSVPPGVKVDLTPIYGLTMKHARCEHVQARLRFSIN
Experimental: as §1, §2, §3, §4

[1] = Solubility test, 1% DMSO addition, artificial intestinal juice pH 6.8; type: physicochemical; details: artificial intestinal juice with 1% DMSO, fassgf or other biorelevant, kinetic from dmso stock; pH 6.8, 1% DMSO addition, 16 hours at 25° C.
Experimental: The solubility of each compound was determined under 1% DMSO addition conditions. A 10 mmol/L solution of the compound was prepared with DMSO, and 6 μL of the solution was added to 594 μL of an artificial intestinal juice (water and a 118 mL solution of 0.2 mol/L NaOH reagent are added to 250 mL of 0.2 mol/L potassium dihydrogen phosphate reagent to reach 1000 mL) with a pH of 6.8. The mixture is left standing for 16 hours at 25° C., and the mixture is vacuum-filtered. The filtrate is two-fold diluted with methanol/water=1/1 (v/v), and the compound concentration in the filtrate is measured with HPLC or LC/MS/MS by the absolute calibration method.

T3 sequence (P10635 whole entry): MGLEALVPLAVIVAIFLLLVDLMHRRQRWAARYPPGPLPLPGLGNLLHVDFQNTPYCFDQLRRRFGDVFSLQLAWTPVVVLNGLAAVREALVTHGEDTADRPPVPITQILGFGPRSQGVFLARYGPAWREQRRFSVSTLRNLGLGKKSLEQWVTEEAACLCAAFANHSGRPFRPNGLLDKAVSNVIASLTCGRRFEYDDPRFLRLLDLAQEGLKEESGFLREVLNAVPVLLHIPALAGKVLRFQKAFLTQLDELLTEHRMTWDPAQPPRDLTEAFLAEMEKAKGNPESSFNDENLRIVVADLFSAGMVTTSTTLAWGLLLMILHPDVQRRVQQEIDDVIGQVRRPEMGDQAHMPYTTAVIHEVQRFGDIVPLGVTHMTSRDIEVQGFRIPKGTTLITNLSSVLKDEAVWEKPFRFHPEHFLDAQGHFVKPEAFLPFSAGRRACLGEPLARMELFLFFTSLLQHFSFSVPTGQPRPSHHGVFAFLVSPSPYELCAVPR
T1 sequence (P08684 whole entry): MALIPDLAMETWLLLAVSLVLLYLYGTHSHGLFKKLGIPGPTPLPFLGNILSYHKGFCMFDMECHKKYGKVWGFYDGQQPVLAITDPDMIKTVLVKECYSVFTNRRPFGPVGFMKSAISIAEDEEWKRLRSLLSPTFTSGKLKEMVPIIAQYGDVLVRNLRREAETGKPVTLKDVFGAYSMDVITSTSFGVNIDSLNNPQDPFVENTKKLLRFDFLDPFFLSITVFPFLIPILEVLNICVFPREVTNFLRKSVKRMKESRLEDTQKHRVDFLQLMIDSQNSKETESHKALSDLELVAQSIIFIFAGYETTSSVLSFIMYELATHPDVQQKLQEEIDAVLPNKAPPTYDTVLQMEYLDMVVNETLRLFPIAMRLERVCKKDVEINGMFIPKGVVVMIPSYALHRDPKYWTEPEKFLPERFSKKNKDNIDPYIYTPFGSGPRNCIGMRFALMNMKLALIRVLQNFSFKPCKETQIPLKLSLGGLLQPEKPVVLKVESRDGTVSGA
T2 sequence (P33261 whole entry): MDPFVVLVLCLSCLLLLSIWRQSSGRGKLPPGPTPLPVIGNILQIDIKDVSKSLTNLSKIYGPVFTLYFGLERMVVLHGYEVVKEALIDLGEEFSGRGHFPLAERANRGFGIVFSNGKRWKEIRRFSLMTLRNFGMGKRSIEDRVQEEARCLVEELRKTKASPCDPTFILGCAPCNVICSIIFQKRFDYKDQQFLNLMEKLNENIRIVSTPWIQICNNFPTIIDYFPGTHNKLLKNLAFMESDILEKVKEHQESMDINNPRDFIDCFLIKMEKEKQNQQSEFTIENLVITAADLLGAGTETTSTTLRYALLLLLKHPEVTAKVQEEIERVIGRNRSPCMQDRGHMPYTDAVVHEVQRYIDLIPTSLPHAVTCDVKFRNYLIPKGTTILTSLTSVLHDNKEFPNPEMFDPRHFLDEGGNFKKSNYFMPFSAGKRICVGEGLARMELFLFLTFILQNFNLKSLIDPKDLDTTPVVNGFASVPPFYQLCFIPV

SMILES | EC50 (HIV (HTLV-III B strain)) [nM] | IC50 at 15 min (CYP3A4) [nM] | IC50 at 15 min (CYP2C19) [nM] | IC50 at 15 min (CYP2D6) [nM] | IC50 at 15 min (CYP1A2) [nM] | also measured
Cc1cc2c(c(C(OC(C)(C)C)C(=O)O)c1-c1ccc3c(c1)CCCO3)CCCN2S(=O)(=O)c1cccc2cccnc12 (stereo not drawn) [II-17] | 2.5 |  |  |  |  | 
Cc1cc(NS(=O)(=O)c2cccc3cccnc23)c(C)c(C(OC(C)(C)C)C(=O)O)c1-c1ccc2c(c1)CCCO2 (stereo not drawn) [Compound I-66] | 4.5 |  |  |  |  | 
Cc1ccc(-c2c(C(OC(C)(C)C)C(=O)O)cc(N(C)C(=O)C(C)C)c(-c3ccc(C)c(C)c3)c2C)cc1C (stereo not drawn) [Compound I-9] |  | ≥ 20000 | ≥ 20000 | ≥ 20000 | ≥ 20000 | 
CC(=O)Nc1cc(C(OC(C)(C)C)C(=O)O)c(-c2ccc(C)c(C)c2)c(C)c1-c1ccc(C)c(C)c1 (stereo not drawn) [Compound I-3] |  | ≥ 20000 | ≥ 20000 | ≥ 20000 | ≥ 20000 | solubility at 16 h [1]: ≥ 50 µM
Cc1ccc(-c2c(NC(=O)C(C)C)cc(C(OC(C)(C)C)C(=O)O)c(-c3ccc(C)c(C)c3)c2C)cc1C (stereo not drawn) [Compound I-10] |  | ≥ 20000 | ≥ 20000 | ≥ 20000 | ≥ 20000 | solubility at 16 h [1]: ≥ 50 µM
Cc1cc(NS(=O)(=O)c2cccc3ccccc23)c(C)c(C(OC(C)(C)C)C(=O)O)c1-c1ccc2c(c1)CCCO2 (stereo not drawn) [Compound I-60] | 4 |  |  |  |  | 
Cc1cc(NS(=O)(=O)CC2CCCCC2)c(C)c(C(OC(C)(C)C)C(=O)O)c1-c1ccc2c(c1)CCCO2 (stereo not drawn) [Compound I-82] | 4.1 |  |  |  |  | 
CC(=O)N(C)c1c(C)c(C(OC(C)(C)C)C(=O)O)c(-c2ccc(C)c(C)c2)c(C)c1-c1ccc(C)c(C)c1 (stereo not drawn) [Compound I-8] |  | ≥ 20000 | ≥ 20000 | ≥ 20000 | ≥ 20000 | 
Cc1cc(-c2c(C)c(-c3ccc4c(c3C)CCCO4)c([C@H](OC(C)(C)C)C(=O)O)c(C)c2NS(C)(=O)=O)ccc1F [Compound I-305] | 2 |  |  |  |  | 
Cc1c(-c2c(C)c(C)c(NS(=O)(=O)c3cccc4ccccc34)c(C)c2C(OC(C)(C)C)C(=O)O)ccc2c1CCCO2 (stereo not drawn) [Compound I-140] | 1.9 |  |  |  |  | 
Cc1cc2c(c(C(OC(C)(C)C)C(=O)O)c1-c1ccc3c(c1)CCCO3)CCCN2S(=O)(=O)c1cccc2ccccc12 (stereo not drawn) [II-14] | 4.8 |  |  |  |  | 
Cc1ccc(-c2c(C)c(-c3ccc4c(c3C)CCCO4)c(C(OC(C)(C)C)C(=O)O)c(C)c2NS(C)(=O)=O)cc1C (stereo not drawn) [Compound I-215] | 2.2 |  |  |  |  | 
Cc1c(OCc2ccccc2)c(N(C)S(C)(=O)=O)c(C)c(C(OC(C)(C)C)C(=O)O)c1-c1ccc2c(c1)CCCO2 (stereo not drawn) [Compound I-263] | 2.5 |  |  |  |  | 
